Reference: ChEMBL document CHEMBL2363022, “Malaria Box Schistosomiasis Screening Data” (2013)

Columns and labels:
Schistosoma mansoni [1] = type: functional; design: scale not given here
Schistosoma mansoni [2] = type: functional; design: scale not given here; remark: listed apart in the source
Schistosoma mansoni [3] = tested on: Schistosoma mansoni
Schistosoma mansoni [4] = type: functional; design: scale not given here; remark: listed apart in the source
Schistosoma mansoni [5] = assay: MMV: Toxicity @ 5 uM to 4-5 Schistosoma mansoni adult males after 24 h on a scale of 0 (none) - 4 (most). Includes short descriptors of effects as judged visually (PMID:19597541). Only those Malaria box 'drug-like' cpds yielding the most severe phenotypes vs. somules were tested. Caffrey group UCSF.; type: functional
Schistosoma mansoni [6] = assay: MMV: Toxicity @ 5 uM to 4-5 Schistosoma mansoni adult males after 48 h on a scale of 0 (none) - 4 (most). Includes short descriptors of effects as judged visually (PMID:19597541). Only those Malaria box 'drug-like' cpds yielding the most severe phenotypes vs. somules were tested. Caffrey group UCSF.; type: functional
Schistosoma mansoni [7] = assay: MMV: Toxicity @ 5 uM to 4-5 Schistosoma mansoni adult males after 72 h on a scale of 0 (none) - 4 (most). Includes short descriptors of effects as judged visually (PMID:19597541). Only those Malaria box 'drug-like' cpds yielding the most severe phenotypes vs. somules were tested. Caffrey group UCSF.; type: functional
Schistosoma mansoni [8] = assay: (§1) MMV: Motility assay. Percent change (relative to DMSO controls) @ 5 uM of movement of 4-5 Schistosoma mansoni adult males after 24 h as measured by the Consensus Voting Luminance Difference algorithm available on WormAssay (PMID:22303493). Occasional incongruence ocurrs between the motility scores and the visually adjudicated 'toxicity scores'. In these cases the 'toxicity score' should be prioritized. Only those Malaria box 'Drug-like' cpds yielding the most severe phenotypes vs. somules were tested. Caffrey group UCSF.; type: functional
Schistosoma mansoni [9] = assay: as §1, with “48” for “24”; type: functional
Schistosoma mansoni [10] = assay: as §1, with “72” for “24”; type: functional

Row | Structure (SMILES) | Toxicity (Schistosoma mansoni [1]) | Toxicity (Schistosoma mansoni [2]) | Toxicity (Schistosoma mansoni [3]) | Toxicity (Schistosoma mansoni [4]) | Toxicity (Schistosoma mansoni [5]) | Toxicity (Schistosoma mansoni [6]) | Toxicity (Schistosoma mansoni [7]) | Motility (Schistosoma mansoni [8]) | Motility (Schistosoma mansoni [9]) | Motility (Schistosoma mansoni [10])
1 | CCOc1cc(Cl)c(C(C)NC(=O)c2cccc(OC)c2)cc1OCC (centres undefined) | 1 | 2 | No effect | – | – | – | – | – | – | –
2 | CCN(CC)CCn1c(=N)n(CC(O)c2ccc(Cl)c(Cl)c2)c2ccccc21.Cl (centres undefined) | 3 | 4 | – | 4 | 0 | 1 | 0 | 68.1 | 7.4 | 66.9
3 | O=c1nc(C=Cc2ccc(Br)cc2)oc2ccccc12 | 2 | 2 | – | 2 | 0 | 0 | 0 | 132 | 98.7 | No effect
4 | O=C(NC(c1ccccc1)c1ccc2cccnc2c1O)c1ccccc1 (centres undefined) | 0 | 4 | – | 3 | 0 | 3 | 4 | 74 | 16.1 | Slow, on sides, dark, tegument damage
5 | COc1ccc(Nc2nc(NCc3ccccc3)c3ccccc3n2)cc1 | 2 | 4 | – | 4 | 0 | 0 | 0 | 100 | 105.7 | No effect
